Key:
A549 = assay: Cytotoxicity against human A549 cells after 48 hrs by MTT assay; type: functional, cell-based
RPMI-8226 = assay: Cytotoxicity against human RPMI8226 cells after 72 hrs by CCK8 method; type: functional, cell-based
HL-60 = assay: Cytotoxicity against human HL60 cells after 72 hrs by CCK8 method; type: functional, cell-based
Kidney = assay: Antioxidant activity in Sprague-Dawley rat kidney assessed as lipid peroxidation by thiobarbituric acid assay; type: functional, tissue-based
Liver = assay: Antioxidant activity in Sprague-Dawley rat liver assessed as lipid peroxidation by thiobarbituric acid assay; type: functional, tissue-based
[1] = Rattus norvegicus, Sprague-Dawley, Kidney
[2] = Rattus norvegicus, Sprague-Dawley, Liver

SMILES	IC50 (A549; Homo sapiens, A549, 48 h) [nM]	IC50 (RPMI-8226; Homo sapiens, RPMI-8226, 72 h) [nM]	IC50 (HL-60; Homo sapiens, HL-60, 72 h) [nM]	IC50 (Kidney; [1]) [nM]	IC50 (Liver; [2]) [nM]	IC50 (A549; a549) [nM]	IC50 (RPMI-8226; rpmi-8226) [nM]	IC50 (HL-60; hl-60) [nM]	IC50 (Kidney) [nM]	IC50 (Liver) [nM]
COc1cc([C@@H]2c3cc4c(cc3C[C@H]3COC(=O)[C@@H]32)OCO4)cc(OC)c1O [4'-DEMETHYLDEOXYPODOPHYLLOTOXIN]	800	230	110	23000	33800					
COc1cc([C@@H]2c3cc4c(cc3C[C@H]3COC(=O)[C@@H]32)OCO4)cc(OC)c1OC(=O)[C@H](CC(C)C)NC(=O)OC1CC(C)(C)N([O])C(C)(C)C1						770	110	85	12100	18000
COc1cc([C@@H]2c3cc4c(cc3C[C@H]3COC(=O)[C@@H]32)OCO4)cc(OC)c1OC(=O)[C@@H]1CCCN1C(=O)OC1CC(C)(C)N([O])C(C)(C)C1						600	130	140	14600	9700
CC[C@H](C)[C@H](NC(=O)OC1CC(C)(C)N([O])C(C)(C)C1)C(=O)Oc1c(OC)cc([C@@H]2c3cc4c(cc3C[C@H]3COC(=O)[C@@H]32)OCO4)cc1OC						830	58	36	6890	13200
COc1cc([C@@H]2c3cc4c(cc3C[C@H]3COC(=O)[C@@H]32)OCO4)cc(OC)c1OC(=O)[C@H](Cc1ccccc1)NC(=O)OC1CC(C)(C)N([O])C(C)(C)C1						500	31	18	15000	10400
COc1cc([C@@H]2c3cc4c(cc3C[C@H]3COC(=O)[C@@H]32)OCO4)cc(OC)c1OC(=O)CNC(=O)OC1CC(C)(C)N([O])C(C)(C)C1						620	73	8.7	13700	14400
COc1cc([C@@H]2c3cc4c(cc3C[C@H]3COC(=O)[C@@H]32)OCO4)cc(OC)c1OC(=O)[C@H](Cc1ccc(O)cc1)NC(=O)OC1CC(C)(C)N([O])C(C)(C)C1						270	43	32	16300	15200
COc1cc([C@@H]2c3cc4c(cc3C[C@H]3COC(=O)[C@@H]32)OCO4)cc(OC)c1OC(=O)[C@H](C)NC(=O)OC1CC(C)(C)N([O])C(C)(C)C1						670	44	12	15800	15300
COc1cc([C@@H]2c3cc4c(cc3C[C@H]3COC(=O)[C@@H]32)OCO4)cc(OC)c1OC(=O)[C@@H](NC(=O)OC1CC(C)(C)N([O])C(C)(C)C1)C(C)C						550	160	24	20300	19300
COc1cc([C@@H]2c3cc4c(cc3[C@@H](O[C@@H]3O[C@@H]5CO[C@@H](C)O[C@H]5[C@H](O)[C@H]3O)[C@H]3COC(=O)[C@H]23)OCO4)cc(OC)c1O [ETOPOSIDE]	830	700	180	64600	46400					

From ChEMBL document CHEMBL1157024, “First synthesis and biological evaluation of novel spin-labeled derivatives of deoxypodophyllotoxin” (Eur J Med Chem, 2010)
